{"source": "PubChem BioAssay AID1259407", "about": "(Chemical Carcinogenesis Research Information System (CCRIS), 2018)", "system": "CCRIS mutagenicity, Ames/micronucleus/aberration tests", "assay": "CCRIS mutagenicity studies", "key": {"[1]": {"details": "Test System: AMES SALMONELLA TYPHIMURIUM, Strain/Indicator: TA98, Metabolic Activation: NONE, Method: PREINCUBATION"}, "[2]": {"details": "Test System: AMES SALMONELLA TYPHIMURIUM, Strain/Indicator: TA98, Metabolic Activation: NONE, Method: STANDARD PLATE"}, "[3]": {"details": "Test System: AMES SALMONELLA TYPHIMURIUM, Strain/Indicator: TA100, Metabolic Activation: NONE, Method: STANDARD PLATE"}}, "note": "The source made the active and inactive calls. The rule behind the calls is not given here."}
{"compound": "CC1=CC(=O)c2ccccc2C1=O", "values": [{"measurement": "mutagenic call", "setting": "Test System: AMES SALMONELLA TYPHIMURIUM, Strain/Indicator: TA97, Metabolic Activation: NONE, Method: PREINCUBATION", "result": "active; positive"}, {"measurement": "mutagenic call", "setting": "Test System: AMES SALMONELLA TYPHIMURIUM, Strain/Indicator: TA97, Metabolic Activation: RAT, LIVER, S-9, PHENOBARBITAL AND 5,6-BENZOFLAVONE, Method: PREINCUBATION", "result": "inactive; negative"}, {"measurement": "mutagenic call", "setting": "Test System: AMES SALMONELLA TYPHIMURIUM, Strain/Indicator: TA97A, Metabolic Activation: NONE, Method: PREINCUBATION", "result": "inactive; negative"}, {"measurement": "mutagenic call", "setting": "[1]", "result": "inactive; negative"}, {"measurement": "mutagenic call", "setting": "Test System: AMES SALMONELLA TYPHIMURIUM, Strain/Indicator: TA98, Metabolic Activation: NONE, Method: SPIRAL ASSAY", "result": "inactive; negative"}, {"measurement": "mutagenic call", "setting": "[2]", "result": "inactive; negative"}, {"measurement": "mutagenic call", "setting": "Test System: AMES SALMONELLA TYPHIMURIUM, Strain/Indicator: TA98, Metabolic Activation: RAT, LIVER, S-9, AROCLOR 1254, Method: SPIRAL ASSAY", "result": "inactive; negative"}, {"measurement": "mutagenic call", "setting": "Test System: AMES SALMONELLA TYPHIMURIUM, Strain/Indicator: TA98, Metabolic Activation: RAT, LIVER, S-9, AROCLOR 1254, Method: STANDARD PLATE", "result": "inactive; negative"}, {"measurement": "mutagenic call", "setting": "Test System: AMES SALMONELLA TYPHIMURIUM, Strain/Indicator: TA98, Metabolic Activation: RAT, LIVER, S-9, PHENOBARBITAL AND 5,6-BENZOFLAVONE, Method: PREINCUBATION", "result": "active; positive"}, {"measurement": "mutagenic call", "setting": "Test System: AMES SALMONELLA TYPHIMURIUM, Strain/Indicator: TA100, Metabolic Activation: NONE, Method: SPIRAL ASSAY", "result": "inactive; negative"}, {"measurement": "mutagenic call", "setting": "[3]", "result": "inactive; negative"}, {"measurement": "mutagenic call", "setting": "Test System: AMES SALMONELLA TYPHIMURIUM, Strain/Indicator: TA100, Metabolic Activation: RAT, LIVER, S-9, AROCLOR 1254, Method: SPIRAL ASSAY", "result": "inactive; negative"}, {"measurement": "mutagenic call", "setting": "Test System: AMES SALMONELLA TYPHIMURIUM, Strain/Indicator: TA100, Metabolic Activation: RAT, LIVER, S-9, AROCLOR 1254, Method: STANDARD PLATE", "result": "inactive; negative"}, {"measurement": "mutagenic call", "setting": "Test System: AMES SALMONELLA TYPHIMURIUM, Strain/Indicator: TA100, Metabolic Activation: RAT, LIVER, S-9, PHENOBARBITAL AND 5,6-BENZOFLAVONE, Method: PREINCUBATION", "result": "inactive; negative"}, {"measurement": "mutagenic call", "setting": "Test System: AMES SALMONELLA TYPHIMURIUM, Strain/Indicator: TA102, Metabolic Activation: NONE, Method: PREINCUBATION", "result": "inactive; negative"}, {"measurement": "mutagenic call", "setting": "Test System: AMES SALMONELLA TYPHIMURIUM, Strain/Indicator: TA102, Metabolic Activation: NONE, Method: STANDARD PLATE", "result": "inactive; negative"}, {"measurement": "mutagenic call", "setting": "Test System: AMES SALMONELLA TYPHIMURIUM, Strain/Indicator: TA102, Metabolic Activation: RAT, LIVER, S-9, PHENOBARBITAL AND 5,6-BENZOFLAVONE, Method: PREINCUBATION", "result": "inactive; negative"}, {"measurement": "mutagenic call", "setting": "Test System: AMES SALMONELLA TYPHIMURIUM, Strain/Indicator: TA104, Metabolic Activation: RAT, LIVER, S-9, PHENOBARBITAL AND 5,6-BENZOFLAVONE, Method: PREINCUBATION", "result": "inactive; negative"}, {"measurement": "mutagenic call", "setting": "Test System: AMES SALMONELLA TYPHIMURIUM, Strain/Indicator: TA1535, Metabolic Activation: NONE, Method: PREINCUBATION", "result": "inactive; negative"}, {"measurement": "mutagenic call", "setting": "Test System: AMES SALMONELLA TYPHIMURIUM, Strain/Indicator: TA1535, Metabolic Activation: NONE, Method: SPIRAL ASSAY", "result": "inactive; negative"}, {"measurement": "mutagenic call", "setting": "Test System: AMES SALMONELLA TYPHIMURIUM, Strain/Indicator: TA1535, Metabolic Activation: NONE, Method: STANDARD PLATE", "result": "inactive; negative"}, {"measurement": "mutagenic call", "setting": "Test System: AMES SALMONELLA TYPHIMURIUM, Strain/Indicator: TA1535, Metabolic Activation: RAT, LIVER, S-9, AROCLOR 1254, Method: SPIRAL ASSAY", "result": "inactive; negative"}, {"measurement": "mutagenic call", "setting": "Test System: AMES SALMONELLA TYPHIMURIUM, Strain/Indicator: TA1535, Metabolic Activation: RAT, LIVER, S-9, AROCLOR 1254, Method: STANDARD PLATE", "result": "inactive; negative"}, {"measurement": "mutagenic call", "setting": "Test System: AMES SALMONELLA TYPHIMURIUM, Strain/Indicator: TA1535, Metabolic Activation: RAT, LIVER, S-9, PHENOBARBITAL AND 5,6-BENZOFLAVONE, Method: PREINCUBATION", "result": "inactive; negative"}, {"measurement": "mutagenic call", "setting": "Test System: AMES SALMONELLA TYPHIMURIUM, Strain/Indicator: TA1537, Metabolic Activation: NONE, Method: PREINCUBATION", "result": "inactive; negative"}, {"measurement": "mutagenic call", "setting": "Test System: AMES SALMONELLA TYPHIMURIUM, Strain/Indicator: TA1537, Metabolic Activation: NONE, Method: SPIRAL ASSAY", "result": "inactive; negative"}, {"measurement": "mutagenic call", "setting": "Test System: AMES SALMONELLA TYPHIMURIUM, Strain/Indicator: TA1537, Metabolic Activation: NONE, Method: STANDARD PLATE", "result": "inactive; negative"}, {"measurement": "mutagenic call", "setting": "Test System: AMES SALMONELLA TYPHIMURIUM, Strain/Indicator: TA1537, Metabolic Activation: RAT, LIVER, S-9, AROCLOR 1254, Method: SPIRAL ASSAY", "result": "inactive; negative"}, {"measurement": "mutagenic call", "setting": "Test System: AMES SALMONELLA TYPHIMURIUM, Strain/Indicator: TA1537, Metabolic Activation: RAT, LIVER, S-9, AROCLOR 1254, Method: STANDARD PLATE", "result": "inactive; negative"}, {"measurement": "mutagenic call", "setting": "Test System: AMES SALMONELLA TYPHIMURIUM, Strain/Indicator: TA1537, Metabolic Activation: RAT, LIVER, S-9, PHENOBARBITAL AND 5,6-BENZOFLAVONE, Method: PREINCUBATION", "result": "inactive; negative"}, {"measurement": "mutagenic call", "setting": "Test System: AMES SALMONELLA TYPHIMURIUM, Strain/Indicator: TA1538, Metabolic Activation: NONE, Method: PREINCUBATION", "result": "inactive; negative"}, {"measurement": "mutagenic call", "setting": "Test System: AMES SALMONELLA TYPHIMURIUM, Strain/Indicator: TA1538, Metabolic Activation: RAT, LIVER, S-9, PHENOBARBITAL AND 5,6-BENZOFLAVONE, Method: PREINCUBATION", "result": "inactive; negative"}, {"measurement": "mutagenic call", "setting": "Test System: AMES SALMONELLA TYPHIMURIUM, Strain/Indicator: TA2637, Metabolic Activation: NONE, Method: PREINCUBATION", "result": "active; positive"}, {"measurement": "mutagenic call", "setting": "Test System: AMES SALMONELLA TYPHIMURIUM, Strain/Indicator: TA2637, Metabolic Activation: RAT, LIVER, S-9, PHENOBARBITAL AND 5,6-BENZOFLAVONE, Method: PREINCUBATION", "result": "active; positive"}, {"measurement": "mutagenic call", "setting": "Test System: AMES SALMONELLA TYPHIMURIUM, Strain/Indicator: TA2638, Metabolic Activation: NONE, Method: STANDARD PLATE", "result": "inactive; negative"}, {"measurement": "mutagenic call", "setting": "Test System: E. COLI, Strain/Indicator: IC202, Metabolic Activation: NONE, Method: STANDARD PLATE", "result": "active; positive"}, {"measurement": "mutagenic call", "setting": "Test System: E. COLI, Strain/Indicator: IC203, Metabolic Activation: NONE, Method: STANDARD PLATE", "result": "active; positive"}, {"measurement": "mutagenic call", "setting": "Test System: E. COLI, Strain/Indicator: IC5059, Metabolic Activation: NONE, Method: STANDARD PLATE", "result": "inactive; negative"}, {"measurement": "mutagenic call", "setting": "Test System: E. COLI, Strain/Indicator: IC5064, Metabolic Activation: NONE, Method: STANDARD PLATE", "result": "inactive; negative"}, {"measurement": "mutagenic call", "setting": "Test System: E. COLI, Strain/Indicator: IC5184, Metabolic Activation: NONE, Method: STANDARD PLATE", "result": "inactive; negative"}, {"measurement": "mutagenic call", "setting": "Test System: E. COLI, Strain/Indicator: IC5185, Metabolic Activation: NONE, Method: STANDARD PLATE", "result": "inactive; negative"}, {"measurement": "mutagenic call", "setting": "Test System: E. COLI, Strain/Indicator: WP2 (PKM101), Metabolic Activation: NONE, Method: STANDARD PLATE", "result": "inactive; negative"}, {"measurement": "mutagenic call", "setting": "Test System: E. COLI, Strain/Indicator: WP2 UVRA (PKM101), Metabolic Activation: NONE, Method: STANDARD PLATE", "result": "inactive; negative"}]}
{"compound": "O=CC1C=COC=C1", "values": [{"measurement": "mutagenic call", "setting": "[2]", "result": "inactive; negative"}, {"measurement": "mutagenic call", "setting": "Test System: AMES SALMONELLA TYPHIMURIUM, Strain/Indicator: TA98, Metabolic Activation: RAT, LIVER, S-9, PHENOBARBITAL, Method: STANDARD PLATE", "result": "inactive; negative"}, {"measurement": "mutagenic call", "setting": "[3]", "result": "inactive; negative"}, {"measurement": "mutagenic call", "setting": "Test System: AMES SALMONELLA TYPHIMURIUM, Strain/Indicator: TA100, Metabolic Activation: RAT, LIVER, S-9, PHENOBARBITAL, Method: STANDARD PLATE", "result": "inactive; negative"}, {"measurement": "mutagenic call", "setting": "Test System: AMES SALMONELLA TYPHIMURIUM, Strain/Indicator: TM677/8-AZAGUANINE, Metabolic Activation: NONE, Method: STANDARD PLATE", "result": "inactive; negative"}]}
{"compound": "Clc1nncc2cccnc12", "values": [{"measurement": "mutagenic call", "setting": "[1]", "result": "inactive; negative"}, {"measurement": "mutagenic call", "setting": "Test System: AMES SALMONELLA TYPHIMURIUM, Strain/Indicator: TA98, Metabolic Activation: RAT, LIVER, S-9, PCB, Method: PREINCUBATION", "result": "active; positive"}, {"measurement": "mutagenic call", "setting": "Test System: AMES SALMONELLA TYPHIMURIUM, Strain/Indicator: TA100, Metabolic Activation: NONE, Method: PREINCUBATION", "result": "inactive; negative"}, {"measurement": "mutagenic call", "setting": "Test System: AMES SALMONELLA TYPHIMURIUM, Strain/Indicator: TA100, Metabolic Activation: RAT, LIVER, S-9, PCB, Method: PREINCUBATION", "result": "active; positive"}]}
{"compound": "COc1ccc2c(c1)C(=O)c1nccc3cc(OC)c(OC)c-2c13", "values": [{"measurement": "mutagenic call", "setting": "Test System: AMES SALMONELLA TYPHIMURIUM, Strain/Indicator: TA100, Metabolic Activation: RAT, LIVER, S-9, PHENOBARBITAL AND BETA-NAPHTHOFLAVONE, Method: PREINCUBATION", "result": "active; positive"}]}
{"compound": "O=C1C=CC(=O)C(c2ccc(Cl)cc2)=C1", "values": [{"measurement": "mutagenic call", "setting": "End Point: In vitro micronucleus, Test System: Chinese hamster lung V79 cells, Metabolic Activation: None", "result": "active; positive"}]}
